B1: siRNA58: 19 bp siRNA targeting the central portion of the ANKRD1 coding region, expressed from pSilencer 2.1-U6 hygro vector (nucleic acid)
chain: GATCCCGTTCCGTGATATGCTTGAATTTCAAGAGAATTCAAGCATATCACGGAATTTTTTGGAA
modifications: the letters are possibly those of the target site
notes: 19 bp siRNA targeting the central portion of the ANKRD1 coding region, expressed from pSilencer 2.1-U6 hygro vector
B2: siRNA77: 19 bp siRNA targeting the region of the ANKRD1 open reading frame encoding the C-terminus, expressed from pSilencer 2.1-U6 hygro vector (nucleic acid)
chain: GATCCCGTGGAACCAAAGCAATATTCTTCAAGAGAGAATATTGCTTTGGTTCCATTTTTTGGAAA
modifications: the letters are possibly those of the target site
notes: 19 bp siRNA targeting the region of the ANKRD1 open reading frame encoding the C-terminus, expressed from pSilencer 2.1-U6 hygro vector
B3: siRNA41: 19 bp siRNA targeting the region of the ANKRD1 open reading frame encoding the N-terminus, expressed from pSilencer 2.1-U6 hygro vector (nucleic acid)
chain: GATCCCAGTTCCAGTTGTGAAGGAATTCAAGAGATTCCTTCACAACTGGAACTTTTTTTGGAAA
modifications: the letters are possibly those of the target site
notes: 19 bp siRNA targeting the region of the ANKRD1 open reading frame encoding the N-terminus, expressed from pSilencer 2.1-U6 hygro vector

Tests used:
[1] = system: human ovarian and breast cell lines; experiment: Relative cisplatin sensitivity (IC37) by MTS proliferation assay; assay type: cell-based; details: 72 hr drug exposure, FIG. 7B
Description: FIG. 7. Expression of ANKRD1 in ovarian and breast cell lines. RNA was extracted from a range of normal and malignant ovarian and breast cell lines. ANKRD1 expression was measured by real-time PCR. A. Results are shown as relative mRNA levels, corrected for human P0 (acidic phosphoprotein P0; also known as 36B4, part of the 60S ribosomal RNA complex) and 18S rRNA. All cell lines are human. HOSE 17.1 and BRE-80 are normal ovarian and breast cell lines respectively; the remaining cell lines are malignant. B. Cisplatin (CDDP) sensitivity was determined for 13 of the cell lines. Survival was determined by MTS assay after exposing the cells to drug for 72 hr. The IC37 is shown for each cell line, results are the mean determined from between two and seven independent experiments. Asterix indicates IC37 not determined. C. Association between growth inhibition by cisplatin (IC37) and expression of ANKRD1 mRNA in 13 cell lines.
Relative cisplatin sensitivity was measured in 13 cell lines using a colorimetric proliferation assay. Cells were seeded into 96-well plates in a volume of 100 μl at 500 to 2000 cells per well. […] IC37 values were calculated for each cell line from survival curves, using data generated from between two to seven independent experiments.

SC2 cells [2] = experiment: Clonogenic survival of ANKRD1-transfected SC2 clones exposed to cisplatin; assay type: cell-based, Chinese hamster; details: SC2 clones transfected with rat ANKRD1 cDNA vs untransfected and vector control, 6 μM cisplatin, FIG. 5
Description: FIG. 5. […] Rat ANKRD1 cDNA was transfected into SC2 cells and transfected clones selected. ANKRD1-transfected clones were exposed to 6 μM cisplatin and the surviving fraction was measured by clonogenic assay. Survival in 4 transfected clones (SC2+ANKRD1) was compared with untransfected SC2 cells and empty vector-control transfected SC2 cells (SC2+vector).
To determine whether ANKRD1 has the ability to decrease sensitivity to cisplatin, rat ANKRD1 cDNA in the pcDNA3.1 expression vector, under the control of a CMV promoter, (a gift from the laboratory of Prof. L. Kedes, University of Southern California, USA) was transfected into the ANKRD1-deficient, platinum-sensitive SC2 mutant using Lipofectamine 2000 (Invitrogen Life Technologies, Carlsbad, Calif., USA). Transfected clones were selected and maintained in 400 μg/ml G-418 (Gibco-BRL).

SC2 cells [3] = experiment: Cisplatin sensitivity by colony formation (clonogenic assay); assay type: cell-based, Chinese hamster; details: 10 uM cisplatin for 2 hr, colony formation over 6 days, percentage of vehicle-treated control
Description: (§1) FIG. 2. Cisplatin sensitivity of CHO cell lines. Parental CHO-K1 and the platinum-sensitive clone SC2 were exposed to a range of cisplatin (CDDP) concentrations for 2 hrs. The drug was then removed and the surviving cell fraction was determined by colony formation over 6 days. Colonies were fixed, stained with 0.1% crystal violet and counted. The results are expressed as a percentage of vehicle-treated control (mean and standard error from duplicate plates in at least three separate experiments) at differing cisplatin (CDDP) concentrations. The present inventors have used a novel approach to identify genes that determine sensitivity to platinum-based chemotherapeutic agents. This strategy utilized the mutant Chinese hamster ovary (CHO) cell line SC2 which is more sensitive to platinum than the parent CHO-K1 cell line. Parental CHO-K1 and mutant CHO cell lines were provided as a gift from Dr I Hickson and Dr C Robson (Imperial Cancer Research Fund, Oxford UK) (Robson, C, et al, 1985). The strategy adopted is outlined in FIG. 1. CHO-K1 cells were mutagenised with ethyl methane sulphonate (EMS). Mutants with altered sensitivity to cisplatin were isolated using replica plating. […] The drug was then removed and the surviving cell fraction was determined by colony formation over 6 days. Colonies were fixed, stained with 0.1% crystal violet and counted. […]

CHO-K1 cells = experiment: as above; assay type: cell-based, Chinese hamster; details: 10 uM cisplatin for 2 hr, colony formation over 6 days, percentage of vehicle-treated control
Description: as §1

[4] = system: CHO-K1 cells and SC2 cells; experiment: Carboplatin and oxaliplatin cell survival by modified MTS assay; assay type: cell-based, Chinese hamster; details: 2 hr drug exposure, 6 days incubation, FIG. 9
Description: FIG. 9. Effect of carboplatin (A) and oxaliplatin (B) on cell survival in CHO-K1 cells (diamonds) and SC2 cells (squares). Cell survival was measured by modified MTS assay. Results are expressed as a percentage of the vehicle-treated control, as a mean and standard error of triplicate wells from six independent experiments. Results were subjected to a paired t-test where * is p<0.05 and ** is p<0.005.
CHO-K1 and SC2 cells were each seeded into 24-well plates, incubated overnight then exposed to a range of concentrations of carboplatin or oxaliplatin for 2 hr. The drugs were removed, wells washed and the growth media replaced. Cells were incubated for 6 days and cell proliferation measured using a modified colorimetric MTS (3-(4,5-dimethylthiazol-2-yl)-5-(3-carboxy-methoxyphenyl)-2-(4-sulfophenyl)-2H-tetrazolium, inner salt) proliferation assay. MTS solution was added to each well and colour development measured on a plate reader at 490 nm.

ANKRD1 = ANKRD1 mRNA by real-time PCR in siRNA transfected CHO-K1 cells; assay type: cell-based, Chinese hamster; details: pools of stably transfected CHO-K1 cells, relative to parent CHO-K1, FIG. 6A
Description: FIG. 6. Increased sensitivity to cisplatin in CHO-K1 cells following reduction of ANKRD1 expression by siRNA. CHO-K1 were transfected with one of three inserts designed to knock-down ANKRD1 expression by targeting regions of the open reading frame encoding the N-terminus (siRNA41; SEQ ID NO: 5), the central portion (siRNA58; SEQ ID NO: 6) or the C-terminus (siRNA77; SEQ ID NO: 7). Pools (P1) of siRNA transfected cells were selected and maintained in hygromycin B. A. ANKRD1 mRNA was measured by real-time PCR. Results are shown as a percentage of the parent CHO-K1 ANKRD1 mRNA levels and corrected for rodent GAPDH (glyceraldehyde-3-phosphate dehydrogenase) and 18S rRNA. B. Cisplatin (CDDP) sensitivity in CHO-K1 and siRNA transfected cells was measured by clonogenic assay. The results are expressed as the mean and standard error of duplicate plates from at least three separate experiments.
To confirm that ANKRD1 was able to modulate platinum sensitivity, the converse hypothesis was tested, that decreasing ANKRD1 expression in the resistant, CHO-K1 cell line would increase sensitivity. Three 19 bp siRNA oligonucleotides were designed to regions encoding the N- and C-terminus as well as to a central portion of the coding region of the CHO ANKRD1 sequence. The sequences of the sense strands of these siRNA oligonucleotides are shown in SEQ ID NOs: 5 (siRNA41), 6 (siRNA58) and 7 (siRNA77). […]
To examine ANKRD1 mRNA expression, 100 ng of cDNA used as templates in real-time PCR using the ABI PRISM 7700 Sequence Detection System (PE Applied Biosystems). Samples were made up in a final volume of 25 μL with Platinum Quantitative PCR Supermix-UDG (Invitrogen) and 250 nM of each primer set. […] Relative concentrations of ANKRD1 and housekeeping genes were determined by comparison of Ct values to a standard curve produced using a sample containing cDNA produced from RNA of known concentration. […]

Row | Molecule | resistance of CHO-K1 cells compared to SC2 cells [4] | ANKRD1 expression (mRNA) (ANKRD1) | also measured
1 | N.N.[Cl][Pt][Cl] [cisplatin] | – | – | relative cisplatin response (IC37) ([1]; COLO 316, T-47D and MCF-7 cell lines): among the most resistant; relative cisplatin response (IC37) ([1]; HOSE 17.1, A2780 and PEO1 cell lines): amongst the most sensitive; resistance to cisplatin after ANKRD1 transfection (SC2 cells [2]): increased resistance; cell survival (SC2 cells [3]): less than 2%; cell survival (CHO-K1 cells): greater than 80%
2 | O=C1[O][Pt]2([NH][C@@H]3CCCC[C@H]3[NH]2)[O]C1=O [oxaliplatin] | significantly more resistant | – | –
3 | N.N.O=C([O-])C1(C(=O)[O-])CCC1.[Pt+2] [carboplatin] | significantly more resistant | – | –
4 | B1 | – | similarly reduced | –
5 | B2 | – | similarly reduced | –
6 | B3 | – | virtually ablated | –

Reference: patent publication US8673869B2, “Determinants of sensitivity to chemotherapeutic agents” (Western Sydney Local Health District, priority 2004, dated 2014)
